Source: PubChem BioAssay AID2060495 (Molecular Pharmacology Branch, DTP, NCI, 2025)

Test system: 521955-158-R2-J5-PDC complex spheroid viability
Assay: Anticancer human tumor 521955-158-R2-J5-PDC patient-derived pancreatic carcinoma cell line growth inhibition [GQUAD]
Details: for IC50: curve of first compound; for viability, T/C: stronger effect = lower value; active means viability on the fitted dose curve at most 10% of control; inactive means the rest
In short: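 Viability of tumor cells grown as complex spheroids with endothelial and stromal cells, exposed to drug combinations. Top concentration at or near clinical Cmax (else 10 microM), diluted in half-log increments.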

[1] = second compound 0.0316 µM, first compound 0.0316 µM
[2] = second compound 0.0316 µM, first compound 0.1 µM
[3] = second compound 0.0316 µM, first compound 0.316 µM
[4] = second compound 0.0316 µM, first compound 1 µM
[5] = second compound 0.0316 µM, first compound 3.16 µM
[6] = second compound 0.0316 µM, first compound 10 µM
[7] = second compound 0.1 µM, first compound 0.0316 µM
[8] = second compound 0.1 µM, first compound 0.1 µM
[9] = second compound 0.1 µM, first compound 0.316 µM
[10] = second compound 0.1 µM, first compound 1 µM
[11] = second compound 0.1 µM, first compound 3.16 µM
[12] = second compound 0.1 µM, first compound 10 µM
[13] = second compound 0.316 µM, first compound 0.0316 µM
[14] = second compound 0.316 µM, first compound 0.1 µM
[15] = second compound 0.316 µM, first compound 0.316 µM
[16] = second compound 0.316 µM, first compound 1 µM
[17] = second compound 0.316 µM, first compound 3.16 µM
[18] = second compound 0.316 µM, first compound 10 µM
[19] = second compound 1 µM, first compound 0.0316 µM
[20] = second compound 1 µM, first compound 0.1 µM
[21] = second compound 1 µM, first compound 0.316 µM
[22] = second compound 1 µM, first compound 1 µM
[23] = second compound 1 µM, first compound 3.16 µM
[24] = second compound 1 µM, first compound 10 µM
[25] = second compound 3.16 µM, first compound 0.0316 µM
[26] = second compound 3.16 µM, first compound 0.1 µM
[27] = second compound 3.16 µM, first compound 0.316 µM
[28] = second compound 3.16 µM, first compound 1 µM
[29] = second compound 3.16 µM, first compound 3.16 µM
[30] = second compound 3.16 µM, first compound 10 µM
[31] = second compound 10 µM, first compound 0.0316 µM
[32] = second compound 10 µM, first compound 0.1 µM
[33] = second compound 10 µM, first compound 0.316 µM
[34] = second compound 10 µM, first compound 1 µM
[35] = second compound 10 µM, first compound 3.16 µM
[36] = second compound 10 µM, first compound 10 µM
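Further: spheroids exposed to agents for one week before reading.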
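Wherever viability, T/C is given: 100% = DMSO vehicle control viability.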

O=C(c1cc(Cc2n[nH]c(=O)c3ccccc23)ccc1F)N1CCN(C(=O)C2CC2)CC1 + Cc1cnc(CNC(=O)c2c(=O)c3ccc(N4CCCN(C)CC4)nc3n3c2sc2ccccc23)cn1
inactive: viability, T/C [1] 83.5% | viability, T/C [2] 56% | viability, T/C [3] 77.1% | viability, T/C [4] 64.4% | viability, T/C [5] 75.4% | viability, T/C [6] 59.7% | viability, T/C [7] 60.3% | viability, T/C [8] 63.5% | viability, T/C [9] 59.7% | viability, T/C [10] 52.9% | viability, T/C [11] 51.8% | viability, T/C [12] 32.5% | viability, T/C [13] 35.1% | viability, T/C [14] 50% | viability, T/C [15] 37.9% | viability, T/C [16] 36.9% | viability, T/C [17] 30.8% | viability, T/C [18] 24.1% | viability, T/C [19] 18% | viability, T/C [20] 19.9% | viability, T/C [21] 22.8% | viability, T/C [22] 23.9% | viability, T/C [23] 21.1% | viability, T/C [24] 16.1% | viability, T/C [25] 16.6% | viability, T/C [26] 19.6% | viability, T/C [27] 21.1% | viability, T/C [28] 15.9% | viability, T/C [29] 16.5% | viability, T/C [30] 13.9% | viability, T/C [31] 21.2% | viability, T/C [32] 18.9% | viability, T/C [33] 18.1% | viability, T/C [34] 18.2% | viability, T/C [35] 16.7% | viability, T/C [36] 12.1%
2.86 µM: IC50 (second compound 0.1 µM)
< 0.0316 µM: IC50 (second compound 0.316 µM) | IC50 (second compound 1 µM) | IC50 (second compound 3.16 µM) | IC50 (second compound 10 µM)
> 10 µM: IC50 (second compound 0.0316 µM)

O=c1[nH]cc(F)c(=O)[nH]1 + Cc1[nH]c2ccc(F)cc2c1-c1nc2c3cccnc3c3ncccc3c2[nH]1
3.09 µM: IC50 (second compound 0.316 µM)
2.08 µM: IC50 (second compound 10 µM)
3.72 µM: IC50 (second compound 0.0316 µM)
inactive: viability, T/C [1] 110% | viability, T/C [2] 84.6% | viability, T/C [3] 76% | viability, T/C [4] 96.7% | viability, T/C [5] 55% | viability, T/C [6] 19.6% | viability, T/C [7] 99.6% | viability, T/C [8] 97.1% | viability, T/C [9] 90.7% | viability, T/C [10] 89.6% | viability, T/C [11] 67% | viability, T/C [12] 21.1% | viability, T/C [13] 90.9% | viability, T/C [14] 94.3% | viability, T/C [15] 104% | viability, T/C [16] 97.8% | viability, T/C [17] 48.9% | viability, T/C [18] 16.2% | viability, T/C [19] 95.2% | viability, T/C [20] 114% | viability, T/C [21] 91.1% | viability, T/C [22] 91.4% | viability, T/C [23] 38.9% | viability, T/C [24] 22% | viability, T/C [25] 106% | viability, T/C [26] 97.2% | viability, T/C [27] 107% | viability, T/C [28] 104% | viability, T/C [29] 37.1% | viability, T/C [30] 18.2% | viability, T/C [31] 105% | viability, T/C [32] 104% | viability, T/C [33] 103% | viability, T/C [34] 88.5% | viability, T/C [35] 28% | viability, T/C [36] 19.3%
2.48 µM: IC50 (second compound 1 µM)
4.88 µM: IC50 (second compound 0.1 µM)
2.53 µM: IC50 (second compound 3.16 µM)
